Measurements reported in ChEMBL document CHEMBL1201862, “PubChem BioAssay data set” (2004).
Calls of active or inactive are those of the source.

What was measured:
[1] = system: A-375; test: MITF: Counter assay: A375 proliferation Measured in Cell-Based System Using Plate Reader - 2084-03_Inhibitor_Dose_DryPowder_Activity. [Related pubchem assays (depositor defined):AID488944]; type: functional; conditions: Homo sapiens
[2] = target: T1, Microphthalmia-associated transcription factor (Homo sapiens, UniProt O75030); test: TRPM1 promoter luciferase signal decrease, dose response, MITF inhibitor project, cell-based, SK-MEL-5, cherry-picked, set 3 (AID 493073); type: functional
T1 sequence (O75030 whole entry): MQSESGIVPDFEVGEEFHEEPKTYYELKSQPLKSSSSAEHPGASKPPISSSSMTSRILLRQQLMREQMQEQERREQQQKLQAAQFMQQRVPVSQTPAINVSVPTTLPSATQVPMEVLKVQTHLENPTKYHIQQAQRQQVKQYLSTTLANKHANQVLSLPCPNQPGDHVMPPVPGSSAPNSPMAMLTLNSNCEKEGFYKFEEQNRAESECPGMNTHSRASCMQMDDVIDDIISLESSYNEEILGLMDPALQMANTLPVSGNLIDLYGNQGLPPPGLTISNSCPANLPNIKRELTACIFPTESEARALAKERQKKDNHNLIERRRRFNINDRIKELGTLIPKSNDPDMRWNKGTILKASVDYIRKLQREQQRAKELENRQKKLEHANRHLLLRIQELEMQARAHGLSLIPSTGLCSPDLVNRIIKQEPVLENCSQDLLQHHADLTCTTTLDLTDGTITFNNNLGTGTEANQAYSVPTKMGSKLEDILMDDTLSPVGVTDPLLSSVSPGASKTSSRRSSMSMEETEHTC

[3] = system: INS1; test: beta cell apoptosis inhibitors, cytokine rescue, dose response, luminescence, retest (AID 449756); type: functional, cell-based; conditions: Rattus norvegicus;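 further: cell death triggered by IL-1 beta plus TNF-alpha plus IFN-gamma mixture; protective hits raise ATP signal compared with cytokine alone wells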
[4] = growth suppression of beta-catenin-knockout colon cells, dose response, cell-based, HCT116, human colon tumor (AID 1045); type: functional;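 further: HCT116 colon tumor cells with beta catenin knocked out; cells exposed to compound for 60 hours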
[5] = growth suppression of PTEN-null colon cells, dose response, cell-based, HCT116 PTEN knockout (AID 1047); type: functional;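 further: HCT116 colon tumor cells with PTEN knocked out; cells exposed to compound for 60 hours before readout; potency for loss of cell viability measured by luminescence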
[6] = target: Beta-2 adrenergic receptor (Homo sapiens, UniProt P07550); test: beta2AR agonists driving receptor internalization, dose response, cell-based, FAP fluorogen, flow cytometry, cherry pick 1 (AID 588763); type: functional
[7] = Luminescence Cell-Based Dose Retest to Confirm Inhibitors of Cancer Stem Cells. [Related pubchem assays (depositor defined):AID2717, AID2721]; type: functional; conditions: Homo sapiens
[8] = system: HeLa; test: HeLa cell cytotoxicity, dose response, cytotoxicity control for MITF activator project, CellTiter-Glo luminescence, cherry-pick samples (AID 540259); type: functional, cell-based; conditions: Homo sapiens
[9] = system: Escherichia coli; test: microbe, parasite or virus in culture
[10] = target: Beta-galactosidase (Escherichia coli, UniProt Q8VNN2); test: PubChem AID 485352; type: functional
[11] = target: T2, Type-1 angiotensin II receptor (Homo sapiens, UniProt P30556); test: AT1 receptor antagonists, dose response, selectivity assay for APJ receptor antagonist project, cell-based, uHTS hits (AID 463214); type: functional;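 further: antagonist potency against angiotensin II stimulated AT1 response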
T2 sequence (P30556 whole entry): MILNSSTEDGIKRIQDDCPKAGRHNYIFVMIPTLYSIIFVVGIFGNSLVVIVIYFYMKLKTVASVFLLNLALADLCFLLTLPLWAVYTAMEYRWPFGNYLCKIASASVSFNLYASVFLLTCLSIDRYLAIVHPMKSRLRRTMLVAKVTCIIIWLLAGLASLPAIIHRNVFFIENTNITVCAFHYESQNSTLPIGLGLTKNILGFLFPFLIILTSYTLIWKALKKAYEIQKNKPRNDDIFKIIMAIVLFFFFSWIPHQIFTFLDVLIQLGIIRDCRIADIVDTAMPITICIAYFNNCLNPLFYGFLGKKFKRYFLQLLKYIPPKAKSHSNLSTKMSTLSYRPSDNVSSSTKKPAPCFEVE

[12] = system: BJ; test: cytotoxicity toward Ras-transformed BJeLR fibroblasts, dose response, cell-based, alamar blue fluorescence, cherrypicked samples (AID 2631); type: functional; conditions: Homo sapiens;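 further: confirmatory dose-response assay in RAS-dependent BJ fibroblasts engineered with TERT, LT and ST, with cytotoxicity read by fluorescence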
[13] = system: BJ; test: cytotoxicity toward BJ-TERT fibroblasts, dose response, cell-based, RAS-independent, luminescence (AID 1933); type: functional; conditions: Homo sapiens
[14] = C. albicans growth with fluconazole, confirmation, fluorescence, retest (AID 2467); type: functional, cell-based
[15] = cytotoxicity toward DRD oncogenic fibroblasts, dose response, cell-based, non-viral oncogenic, luminescence (AID 1934); type: functional; conditions: Homo sapiens
[16] = system: HEK293; test: cells; type: functional, cell-based; conditions: Homo sapiens
[17] = inhibitors of SNCA 5'UTR-driven reporter translation, confirmation, H4 neuroglioma cells, luminescence (AID 1988); type: functional, cell-based
[18] = HepG2 cell cytotoxicity, dose response, cytotoxicity control for non-replicating M. tuberculosis project (AID 489018); type: functional; conditions: Mycobacterium tuberculosis
[19] = system: HEK293; test: cells; type: functional, cell-based; conditions: Homo sapiens; remark: listed apart in the source
[20] = inhibitors of firefly luciferase expression or activity, dose response, H4 neuroglioma cells, luminescence (AID 1990); type: functional, cell-based
[21] = inhibitors of HIV Env-driven cell fusion, dose response, cherry-pick (AID 652057); type: functional, cell-based
[22] = system: HEK293; test: NOD2 signaling inhibitors in MDP-stimulated cells, cell-based, uHTS, luminescence (AID 2001); type: functional; conditions: Homo sapiens
[23] = target: Nucleotide-binding oligomerization domain-containing protein 2 (Homo sapiens, UniProt Q9HC29); test: NOD2 signaling inhibitors, cell-based, luminescence, uHTS, HEK293 (AID 1566); type: functional
[24] = NIH-3T3 fibroblast cytotoxicity, dose response, cytotoxicity control, cell-based, fluorescence, Alamar Blue, secondary assay (AID 2327); type: functional;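 further: NIH-3T3 mouse fibroblasts cultured with fluconazole at 8 µg/mL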
[25] = target: T3, Serine/threonine-protein phosphatase (Candida dubliniensis (strain CD36 / CBS 7987 / NCPF 3949 / NRRLY-17841) (Yeast), UniProt B9W6M3); test: calcineurin pathway inhibitors in yeast reporter, dose response, S. cerevisiae, CDRE-lacZ, luminescence, secondary (AID 2388); type: functional, cell-based;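 further: yeast reporter cells carrying a calcineurin-responsive lacZ construct stimulated with calcium chloride; luminescent beta-galactosidase reporter signal in whole cells rather than isolated phosphatase activity; potency for inhibition where a drop in reporter signal means calcineurin blockade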
T3 sequence (B9W6M3 whole entry): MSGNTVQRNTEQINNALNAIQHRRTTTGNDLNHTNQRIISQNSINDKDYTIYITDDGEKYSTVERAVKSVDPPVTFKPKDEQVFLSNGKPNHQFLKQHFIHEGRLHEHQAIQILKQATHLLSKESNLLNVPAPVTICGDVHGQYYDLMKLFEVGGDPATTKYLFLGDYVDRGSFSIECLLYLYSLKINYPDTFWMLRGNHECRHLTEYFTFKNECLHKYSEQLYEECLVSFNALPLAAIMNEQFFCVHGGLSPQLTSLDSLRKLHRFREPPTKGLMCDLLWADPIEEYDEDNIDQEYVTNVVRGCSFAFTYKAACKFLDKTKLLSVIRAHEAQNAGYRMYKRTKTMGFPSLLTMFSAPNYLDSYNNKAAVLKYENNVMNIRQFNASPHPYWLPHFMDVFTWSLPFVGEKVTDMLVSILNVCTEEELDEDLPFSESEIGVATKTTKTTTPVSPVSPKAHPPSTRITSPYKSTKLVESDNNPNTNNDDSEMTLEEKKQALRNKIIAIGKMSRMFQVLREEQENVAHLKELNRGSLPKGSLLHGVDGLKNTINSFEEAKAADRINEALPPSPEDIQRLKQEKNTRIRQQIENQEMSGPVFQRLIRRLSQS

[26] = cytotoxicity in HEK-293T NF-kB-Luc cells, dose response, cytotoxicity control for B/T-cell NF-kB inhibitor project, cell-based, uHTS hits (AID 489019); type: functional;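 further: IC50 reflects cytotoxicity as loss of cell viability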
[27] = Luminescence Cell-Based Dose Response HTS to Identify Inhibitors of 5'UTR Stem-Loop Driven Prion Protein mRNA Translation in H4 Neuroglioblastoma Cells. [Related pubchem assays: 1827 (Project Summary), 1813 (Primary HTS)]; type: functional
[28] = ZM109 Env clade C HIV-1 fusion inhibitors, dose response, HeLa effector, CEM target cells, luciferase, cherry-pick (AID 652058); type: functional, cell-based
[29] = target: Protein Rev (Human immunodeficiency virus type 1 group M subtype B (isolate WMJ22)(HIV-1), UniProt P05866); test: HIV-1 Rev-RRE RNA binding disruptors, dose response, biochemical, protein-RNA interaction (AID 842); parameters: species or system Human immunodeficiency virus 1
[30] = target: ATP-dependent molecular chaperone HSP82 (Candida albicans (strain WO-1) (Yeast), UniProt C4YTQ8); test: loss of DOC-induced GRE-beta-galactosidase reporter signal, dose response, Hsp90 inhibitor project, S. cerevisiae, luminescence (AID 2400); type: functional, cell-based;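 further: beta-galactosidase luminescence from glucocorticoid response element reporter as proxy for Hsp90 function; inhibitor potency where signal loss means Hsp90 inhibition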
[31] = system: Jurkat; test: antigen receptor-induced NF-kB inhibitors, dose response, Jurkat, luciferase reporter, luminescence, B- and T-cell (AID 489004); type: functional, cell-based; conditions: Homo sapiens;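 further: NF-kB luciferase reporter Jurkat cells stimulated with PMA plus ionomycin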
[32] = system: HEK293; test: NOD1 signaling inhibitors, primary screen, cell-based, luminescence, uHTS (AID 1578); type: functional; conditions: Homo sapiens
[33] = system: HEK293; test: cells; type: functional, cell-based; conditions: Homo sapiens; remark: listed apart in the source
[34] = CEM21 lymphoblast cell cytotoxicity, dose response, cytotoxicity control for viral fusion inhibitor project, CellTiter-Glo luminescence, cherry-picked (AID 652042); type: functional, cell-based;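 further: potency for signal decrease meaning cytotoxicity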
[35] = Vero E6 cell cytotoxicity, dose response, cytotoxicity control for non-replicating M. tuberculosis project, secondary assay (AID 492998); type: functional, VeroE6; conditions: Vero C1008
[36] = system: BJ; test: cells; type: functional, cell-based; conditions: Homo sapiens
[37] = THP-1 cell cytotoxicity, dose response, cytotoxicity control for non-replicating M. tuberculosis project (AID 489025); type: functional
[38] = cells; type: functional
[39] = system: BJ; test: cytotoxicity toward BJ-TERT-LT-ST fibroblasts, dose response, cell-based, RAS-independent, luminescence (AID 1935); type: functional; conditions: Homo sapiens;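 further: BJ fibroblasts immortalized with TERT plus LT and ST oncogenes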
[40] = inhibitors of clade B AD8 Env fusion, dose response, cell-based, cherry-pick (AID 652062); type: functional;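 further: luciferase signal from cell-cell fusion driven by HIV-1 clade B AD8 Env; potency is for inhibitors of fusion seen as a drop in luminescence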

Beta-galactosidase, sequence (Q8VNN2 whole entry): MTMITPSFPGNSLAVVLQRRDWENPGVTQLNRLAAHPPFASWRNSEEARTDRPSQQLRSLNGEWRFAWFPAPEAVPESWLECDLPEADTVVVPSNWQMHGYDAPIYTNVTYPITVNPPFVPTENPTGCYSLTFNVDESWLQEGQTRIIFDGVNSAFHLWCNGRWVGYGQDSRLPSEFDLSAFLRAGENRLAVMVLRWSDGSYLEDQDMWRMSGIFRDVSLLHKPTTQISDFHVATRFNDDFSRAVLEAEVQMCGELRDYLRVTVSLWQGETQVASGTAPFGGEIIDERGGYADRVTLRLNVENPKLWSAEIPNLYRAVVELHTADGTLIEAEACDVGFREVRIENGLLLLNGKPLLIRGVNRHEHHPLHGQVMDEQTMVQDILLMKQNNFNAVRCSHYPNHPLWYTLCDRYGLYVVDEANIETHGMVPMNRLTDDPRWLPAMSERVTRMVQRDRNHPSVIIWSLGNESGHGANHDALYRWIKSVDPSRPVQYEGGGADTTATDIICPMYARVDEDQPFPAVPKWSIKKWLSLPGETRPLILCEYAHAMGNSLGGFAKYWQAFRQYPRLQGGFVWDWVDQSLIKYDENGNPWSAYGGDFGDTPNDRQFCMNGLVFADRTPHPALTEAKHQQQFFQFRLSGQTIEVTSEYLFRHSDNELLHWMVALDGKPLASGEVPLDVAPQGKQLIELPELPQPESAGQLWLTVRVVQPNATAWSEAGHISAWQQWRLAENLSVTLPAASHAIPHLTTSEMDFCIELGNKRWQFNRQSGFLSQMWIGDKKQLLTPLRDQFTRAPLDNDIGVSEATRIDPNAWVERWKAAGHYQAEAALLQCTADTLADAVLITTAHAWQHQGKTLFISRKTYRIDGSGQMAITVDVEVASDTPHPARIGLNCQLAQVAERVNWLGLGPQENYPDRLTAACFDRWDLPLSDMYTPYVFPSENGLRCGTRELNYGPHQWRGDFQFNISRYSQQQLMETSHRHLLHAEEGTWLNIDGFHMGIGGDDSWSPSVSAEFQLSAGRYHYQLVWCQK
Beta-2 adrenergic receptor, sequence (P07550 whole entry): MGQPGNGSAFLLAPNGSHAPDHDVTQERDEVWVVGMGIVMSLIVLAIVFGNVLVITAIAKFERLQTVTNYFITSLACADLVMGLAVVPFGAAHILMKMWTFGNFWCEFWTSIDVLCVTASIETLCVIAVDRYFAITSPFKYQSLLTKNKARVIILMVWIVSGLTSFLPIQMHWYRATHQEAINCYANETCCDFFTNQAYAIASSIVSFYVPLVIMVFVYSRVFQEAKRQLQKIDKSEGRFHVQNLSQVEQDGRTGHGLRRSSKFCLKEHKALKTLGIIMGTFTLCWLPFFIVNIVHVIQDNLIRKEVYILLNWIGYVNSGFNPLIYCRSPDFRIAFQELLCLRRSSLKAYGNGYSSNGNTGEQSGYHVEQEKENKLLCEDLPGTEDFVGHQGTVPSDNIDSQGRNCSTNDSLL
ATP-dependent molecular chaperone HSP82, sequence (C4YTQ8 whole entry): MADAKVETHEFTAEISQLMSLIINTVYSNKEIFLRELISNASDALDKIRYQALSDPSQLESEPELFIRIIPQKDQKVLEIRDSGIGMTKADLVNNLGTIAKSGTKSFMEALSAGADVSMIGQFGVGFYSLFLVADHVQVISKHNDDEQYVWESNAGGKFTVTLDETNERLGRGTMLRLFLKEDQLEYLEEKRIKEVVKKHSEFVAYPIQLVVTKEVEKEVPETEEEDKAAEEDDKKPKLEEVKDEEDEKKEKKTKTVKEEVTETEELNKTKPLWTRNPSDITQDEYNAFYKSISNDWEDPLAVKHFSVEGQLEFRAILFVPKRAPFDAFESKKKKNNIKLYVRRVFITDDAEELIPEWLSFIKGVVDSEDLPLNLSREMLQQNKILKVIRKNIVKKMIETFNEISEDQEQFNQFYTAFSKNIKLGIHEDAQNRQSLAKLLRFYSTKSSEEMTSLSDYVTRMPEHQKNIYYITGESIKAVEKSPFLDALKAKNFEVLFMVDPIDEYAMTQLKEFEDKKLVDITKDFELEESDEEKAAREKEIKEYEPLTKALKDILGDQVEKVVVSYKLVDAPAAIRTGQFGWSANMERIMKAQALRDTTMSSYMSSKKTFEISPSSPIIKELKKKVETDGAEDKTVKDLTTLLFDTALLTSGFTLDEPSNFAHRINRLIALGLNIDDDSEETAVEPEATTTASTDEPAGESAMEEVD
Nucleotide-binding oligomerization domain-containing protein 2, sequence (Q9HC29 whole entry, the tested form may be a part): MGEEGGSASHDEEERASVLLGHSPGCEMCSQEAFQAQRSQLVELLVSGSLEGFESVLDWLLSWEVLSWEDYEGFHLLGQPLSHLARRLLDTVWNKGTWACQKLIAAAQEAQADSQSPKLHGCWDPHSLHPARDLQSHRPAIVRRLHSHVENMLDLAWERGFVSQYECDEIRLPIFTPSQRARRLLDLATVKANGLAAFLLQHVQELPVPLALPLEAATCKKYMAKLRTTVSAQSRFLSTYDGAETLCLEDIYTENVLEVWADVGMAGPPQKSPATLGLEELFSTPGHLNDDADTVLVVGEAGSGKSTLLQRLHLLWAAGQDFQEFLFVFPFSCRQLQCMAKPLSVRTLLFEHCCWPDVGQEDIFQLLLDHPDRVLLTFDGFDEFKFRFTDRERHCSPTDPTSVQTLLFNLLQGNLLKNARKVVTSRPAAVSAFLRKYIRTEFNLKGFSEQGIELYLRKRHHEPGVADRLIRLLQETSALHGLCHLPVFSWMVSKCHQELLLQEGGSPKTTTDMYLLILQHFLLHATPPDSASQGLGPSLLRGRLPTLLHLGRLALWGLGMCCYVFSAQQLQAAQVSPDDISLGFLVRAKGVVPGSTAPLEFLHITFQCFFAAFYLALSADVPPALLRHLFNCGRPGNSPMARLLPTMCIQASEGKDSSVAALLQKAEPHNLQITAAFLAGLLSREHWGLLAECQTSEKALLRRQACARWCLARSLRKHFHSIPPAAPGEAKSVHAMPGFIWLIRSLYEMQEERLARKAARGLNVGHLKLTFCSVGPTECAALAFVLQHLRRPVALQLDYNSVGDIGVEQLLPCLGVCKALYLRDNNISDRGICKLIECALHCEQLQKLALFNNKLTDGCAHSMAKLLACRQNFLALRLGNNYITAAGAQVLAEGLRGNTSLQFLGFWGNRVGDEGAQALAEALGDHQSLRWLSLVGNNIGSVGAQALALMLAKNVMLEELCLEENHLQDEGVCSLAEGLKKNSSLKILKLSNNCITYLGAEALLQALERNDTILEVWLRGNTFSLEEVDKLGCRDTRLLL
Protein Rev, sequence (P05866 whole entry): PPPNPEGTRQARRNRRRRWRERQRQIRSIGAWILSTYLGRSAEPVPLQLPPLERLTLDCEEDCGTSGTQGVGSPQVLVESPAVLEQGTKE

COc1ccccc1CNCC(O)Cn1c2ccccc2c2ccccc21 (stereo unspecified)
active: AC50 [1] 19.2 µM | AC50 [2] 18.7 µM | AC50 [3] 11.2 µM | EC50 [4] 8.31 µM | EC50 [5] 8.09 µM
inactive: EC50 [6] 12.2 µM

CC(C)c1ccc(NC(=O)c2snc3ccc(Cl)cc23)cc1
active: AC50 [7] 3.02 µM | AC50 [8] 52.8 µM | AC50 [9] 23.1 µM

Brc1csc(/C=N/Nc2nc3ccccc3s2)c1
active: AC50 [8] 46 µM

O=C1N=C(NS(=O)(=O)Cc2ccccc2)S/C1=C/c1cc([N+](=O)[O-])ccc1O
39.9 µM (not active): IC50 [11]
inactive: EC50 [10] > 40 µM

CCC[N+](CC#Cc1ccccc1)(CCC)CC(=O)c1ccc(Cl)cc1
inactive: EC50 [10] > 40 µM
> 40 µM (not active): IC50 [11]

COc1ccc(/C=C/c2cc(-c3ccc(C)cc3)o[n+]2C)cc1
inactive: EC50 [24] > 160 µM | EC50 [25] > 180 µM | IC50 [26] > 80 µM | EC50 [30] > 160 µM | IC50 [33] > 20 µM
> 79.4 µM (not active): IC50 [29]
active: EC50 [12] 3.43 µM | EC50 [14] 0.576 µM | EC50 [15] 5.02 µM | IC50 [16] 5.25 µM | EC50 [17] 2.27 µM | CC50 [18] 9.8 µM | IC50 [19] 13.2 µM | EC50 [20] 0.894 µM | AC50 [21] 6.83 µM | IC50 [22] 8.34 µM | EC50 [23] 8.29 µM | EC50 [27] 12.2 µM | AC50 [28] 3.33 µM | AC50 [3] 0.76 µM | IC50 [31] 3.13 µM | EC50 [32] 9.15 µM | AC50 [34] 4.21 µM | CC50 [35] > 20 µM | CC50 [37] 2.38 µM | EC50 [4] 0.733 µM | EC50 [5] 0.778 µM | IC50 [38] 5.99 µM | AC50 [40] 7.88 µM
inconclusive: EC50 [13] 0.601 µM | EC50 [36] 1.87 µM | EC50 [39] 4.41 µM
